The results in this text go back to patent US4578383A, “CL 1565 antibiotic compounds” (priority 1984, dated 1986).

Each structure is given as a SMILES string. Read-outs that look alike come from different tables or passages of the source.

For the data set, the system named is P388 Lymphatic Leukemia. The format is in vivo, Mice. From the text: The test method used is based on that described in Cancer Chemother. Reports 3:1-87 (part 3), 1972.
The mark [1] stands for this setting: 3.1 mg/kg/day (CL 1565-T and CL 1565-B tables).
[2] abbreviates: 6.3 mg/kg/day (CL 1565-T and CL 1565-B tables).
The mark [3] stands for this setting: 12.5 mg/kg/day (CL 1565-T and CL 1565-B tables).

`CC(O)(C=CC1OC(=O)C=CC1O)C(CC(O)C=CC=CC=CCO)OP(=O)(O)O` (centres unmarked) [CL 1565-T]: the “T/C × 100” value runs as follows: under setting [1], 147; under setting [2], 142; under setting [3], 147; (25.0 mg/kg/day (CL 1565-T table)) 157.

Take `CC=CC=CC=CC(O)CC(OP(=O)(O)O)C(C)(O)C=CC1CC=CC(=O)O1` (centres unmarked) [CL 1565-B]: the “T/C × 100” value is 129 under setting [1], 142 under setting [2] and 178 under setting [3]. In addition, where the note is “25.0 mg/kg/day (CL 1565-B table)”, the “T/C × 100 (toxicity noted)” value is “Toxic”.
